These results are taken from US10513533B2, “Tunicamycin related compounds with anti-bacterial activity” (priority 2017, dated 2019).

“Also recorded” adds a separate entry of the source.

One data set relates to Saccharomyces cerevisiae. The data set can be described thus: agar diffusion-zone of inhibition assay. The conditions noted are these: for Zone of Clearing (cm) Yeast: Example 1, 0.5 μg spotted. The format is cell-based. For orientation: In agar diffusion tests the substance spreads into inoculated agar from a disc or well.
A further data set concerns Bacillus subtilis. In words: agar diffusion-zone of inhibition assay. The conditions noted are these: for Zone of Clearing (cm) B. subtilis: Example 1, 0.5 μg spotted. The format is cell-based.
Data set [1] relates to AtchitIV5 N-glycosylation. In words: Pichia-based protein N-glycosylation assay (SDS-PAGE). Format: cell-based. The conditions noted are these: Example 2, 20 μg/mL, added at methanol induction.
In the next data set the test system is B. subtilis strain MW10. In words: beta-lactam enhancement, broth dilution MIC with resazurin. The note with it: for MIC of the beta-lactam without any tunicamycins or tunicamycin related compounds added: beta-lactam alone. (Broth dilution looks for growth in wells or tubes with falling amounts of substance.)
For data set [2], the system named is cell wall teichoic acid (WTA) pathway. The note with it: background, literature; cited from earlier work.
The subject of data set [3] is Chinese hamster ovary (CHO) cells. In words: cytotoxicity against mammalian cell line in culture. The format is cell-based. The note with it: FIG. 8A, 0.5 μg, 1.0 μg, 2.0 μg. The source says: Chinese hamster ovary (CHO) cells are chosen for this experiment because they have been used previously as a model for tunicamycin toxicity. See, e.g., Scocca and Krag, J. Biol. Chem., 265:20621-20626 (1990). A human cell line (MDA-MB-231 triple negative human breast cancer cells) are also used because their known susceptibility to tunicamycin. See, Banerjee, et al., Cancer Res. 71:2095 (2011). The protocols used are described in Duksin & Bornstein, Proc. Natl. Acad. Sci. (U.S.A.), 74:3433-3437 (1977).

With `CC(=O)NC1C(O)[C@H](O)C(CO)O[C@@H]1OC1O[C@H](C[C@@H](O)C2O[C@@H](n3ccc(=O)[nH]c3=O)[C@H](O)[C@@H]2O)C(O)C(O)[C@H]1N` (some centres unmarked) [Compound 1], the “Zone of Clearing (cm) Yeast” value in the data set with Saccharomyces cerevisiae came to 0 cm. Also, the “Zone of Clearing (cm) B. subtilis” value with Bacillus subtilis was found to be 0 cm.

As for `CC(=O)NC1C(O)[C@H](O)[C@H](CO)O[C@@H]1O[C@@H]1O[C@H](C[C@@H](O)C2O[C@@H](n3ccc(=O)[nH]c3=O)[C@H](O)[C@@H]2O)C(O)C(O)[C@H]1NC(=O)/C=C/CCCCCCCCCC(C)C` (some centres unmarked) [Compound 2], the “inhibition of AtchitIV5 N-glycosylation (in words)” value in data set [1] is given as “same effect as the naturally occurring tunicamycins”. Also, in the data set on Saccharomyces cerevisiae, the “toxicity / antimicrobial activity on S. cerevisiae (in words)” value (from here on “toxicity / antimicrobial activity”) is listed as “same antimicrobial activity as the native tunicamycin” and the “Zone of Clearing (cm) Yeast” value came out at 2.4 cm. In addition, in the data set on Bacillus subtilis, the “antimicrobial activity on Bacillus (in words)” value was “same antimicrobial activity as the native tunicamycin” and the “Zone of Clearing (cm) B. subtilis” value was 2.5 cm.

As for `CC(=O)NC1C(O)[C@H](O)[C@H](CO)O[C@@H]1O[C@@H]1O[C@H](C[C@@H](O)C2O[C@@H](n3ccc(=O)[nH]c3=O)[C@H](O)[C@@H]2O)C(O)C(O)[C@H]1NC(=O)CCCCCCCCCCCC(C)C` (some centres unmarked) [Compound 3], the “inhibition of AtchitIV5 N-glycosylation (in words)” value in data set [1] was “less effective inhibitor”. Also, in the data set with Saccharomyces cerevisiae, the “toxicity / antimicrobial activity” value was “considerably less toxic; also recorded: reduced toxicity” and the “Zone of Clearing (cm) Yeast” value turned out to be 0.2 cm. In addition, in the data set on Bacillus subtilis, the “antimicrobial activity on Bacillus (in words)” value is recorded as “comparable response” and the “Zone of Clearing (cm) B. subtilis” value stood at 2.3 cm.

As for `CC(C)CCCCCCCCC/C=C/C(=O)N[C@@H]1C(O)C(O)[C@@H](C[C@@H](O)C2O[C@@H](n3ccc(=O)[nH]c3=O)[C@H](O)[C@@H]2O)O[C@H]1O[C@H]1O[C@@H](CO)[C@@H](O)C(O)C1N=[N+]=[N-]` (some centres unmarked) [Compound 4], in the data set on Saccharomyces cerevisiae, the “toxicity / antimicrobial activity” value is recorded as “essentially non-toxic; also recorded: reduced toxicity” and the “Zone of Clearing (cm) Yeast” value was 0 cm. Further, in the data set with Bacillus subtilis, the “antimicrobial activity on Bacillus (in words)” value is “almost equivalent to the native tunicamycin” and the “Zone of Clearing (cm) B. subtilis” value was 1.6 cm.

Take `[N-]=[N+]=NC1C(O)[C@H](O)C(CO)O[C@@H]1OC1O[C@H](C[C@@H](O)C2O[C@@H](n3ccc(=O)[nH]c3=O)[C@H](O)[C@@H]2O)C(O)C(O)[C@H]1N1C(=O)c2ccccc2C1=O` (some centres unmarked) [Compound 5]: the “Zone of Clearing (cm) Yeast” value in the data set on Saccharomyces cerevisiae stood at 0 cm. The “Zone of Clearing (cm) B. subtilis” value with Bacillus subtilis came to 0 cm.

Regarding `COc1ccc(O[C@@H]2OC([C@H](O)C[C@H]3OC(O[C@H]4OC(CO)[C@@H](O)C(O)C4NC(C)=O)[C@H](N)C(O)C3O)[C@@H](O)[C@H]2O)cc1` (some centres unmarked) [Compound 6], in the data set with Saccharomyces cerevisiae, the “toxicity / antimicrobial activity” value is “no antimicrobial biological activity” and the “Zone of Clearing (cm) Yeast” value is 0 cm. Besides, in the data set with Bacillus subtilis, the “antimicrobial activity on Bacillus (in words)” value is reported as “no antimicrobial biological activity” and the “Zone of Clearing (cm) B. subtilis” value is reported as 0 cm.

With `COc1ccc(O[C@@H]2OC([C@H](O)C[C@H]3O[C@@H](O[C@H]4O[C@@H](CO)[C@@H](O)C(O)C4NC(C)=O)[C@H](NC(=O)/C=C/CCCCCCCCCC(C)C)C(O)C3O)[C@@H](O)[C@H]2O)cc1` (some centres unmarked) [Compound 7], in the data set with Saccharomyces cerevisiae, the “toxicity / antimicrobial activity” value was “no antimicrobial biological activity” and the “Zone of Clearing (cm) Yeast” value was 0 cm. For the same compound, in the data set on Bacillus subtilis, the “antimicrobial activity on Bacillus (in words)” value was “no antimicrobial biological activity” and the “Zone of Clearing (cm) B. subtilis” value came out at 0 cm.

As for `CC(=O)NC1C(O)[C@H](O)C(CO)O[C@@H]1OC1O[C@H](C[C@@H](O)C2O[C@@H](n3ccc(=O)[nH]c3=O)[C@H](O)[C@@H]2O)C(O)C(O)[C@H]1NC(C)=O` (some centres unmarked) [Compound 9], in the data set on Saccharomyces cerevisiae, the “Zone of Clearing (cm) Yeast” value was 0 cm. Besides, the “Zone of Clearing (cm) B. subtilis” value with Bacillus subtilis was 0 cm.

Consider `CC(=O)NC1C(O)[C@H](O)[C@H](CO)O[C@@H]1O[C@@H]1O[C@H](C[C@@H](O)C2O[C@@H](n3cnc4c(N)ncnc43)[C@H](O)[C@@H]2O)C(O)C(O)[C@H]1NC(=O)/C=C/CCCCCCCCCC(C)C` (some centres unmarked) [Compound 10], for which, in the data set with Saccharomyces cerevisiae, the “toxicity / antimicrobial activity” value is on record as “no antimicrobial biological activity” and the “Zone of Clearing (cm) Yeast” value came to 0 cm. Moreover, in the data set with Bacillus subtilis, the “antimicrobial activity on Bacillus (in words)” value was “no antimicrobial biological activity” and the “Zone of Clearing (cm) B. subtilis” value is 0 cm.

For the compound `COc1cccc(OC)c1C(=O)N[C@@H]1C(=O)N2[C@@H]1SC(C)(C)[C@@H]2C(=O)O` [methicillin], the “MIC of the beta-lactam without any tunicamycins or tunicamycin related compounds added” value in the data set with B. subtilis strain MW10 was 0.125 µg/mL.

What is called MIC is the lowest concentration that inhibits growth of the organism. On to `Cc1onc(-c2ccccc2)c1C(=O)N[C@@H]1C(=O)N2[C@@H]1SC(C)(C)[C@@H]2C(=O)O` [oxacillin], for which the MIC in the data set on B. subtilis strain MW10 (Bacillus subtilis, MW10, read-out: MIC of oxacillin only) was determined as 0.125 µg/mL. Moreover, in the data set on B. subtilis strain MW10, the “MIC of the beta-lactam without any tunicamycins or tunicamycin related compounds added” value worked out at 0.25 µg/mL.

Consider `CC1(C)S[C@@H]2[C@H](NC(=O)Cc3ccccc3)C(=O)N2[C@H]1C(=O)O` [penicillin G], for which the “MIC of the beta-lactam without any tunicamycins or tunicamycin related compounds added” value in the data set on B. subtilis strain MW10 was 0.025 µg/mL.

On to `C[C@H]1[C@@H](c2cc(C(F)(F)F)cc(C(F)(F)F)c2)OC(=O)N1C(=O)CCc1cncc2ccccc12` [tarocin A1], for which the “depletion of the cell wall teichoic acid polymer (in words)” value in data set [2] is “complete depletion”.

quinovosamycin: the “toxicity to CHO cells (in words)” value in data set [3] is listed as “toxic”.
